Test results from US20080090805A1, “CB-1 MODULATING COMPOUNDS AND THEIR USE” (ACADIA PHARMACEUTICALS INC., priority 2005, published 2008).
Read-outs that look alike come from different tables or passages of the source.

Assays:
native CB1 receptors = native CB1 receptors (Rattus norvegicus, UniProt P20272); experiment: CB1 receptor rat binding assay ([3H]SR141716A, rat brain membranes)
CB1 (mutant) = CB1 (mutant) (Homo sapiens, UniProt P21554); experiment: R-SAT functional receptor assay, CB1 (mutant, truncated after amino acid 417); format: cell-based; settings: Appendix A, R-SAT CB1; for IC50: receptor form (mutant or wild-type) not stated, read-out: pIC50 (converted); for Emax: receptor form not stated, relative to SR141716 (100%), read-out: % Inhibition
Chain of CB1 (mutant) (P21554 1-417, change not shown): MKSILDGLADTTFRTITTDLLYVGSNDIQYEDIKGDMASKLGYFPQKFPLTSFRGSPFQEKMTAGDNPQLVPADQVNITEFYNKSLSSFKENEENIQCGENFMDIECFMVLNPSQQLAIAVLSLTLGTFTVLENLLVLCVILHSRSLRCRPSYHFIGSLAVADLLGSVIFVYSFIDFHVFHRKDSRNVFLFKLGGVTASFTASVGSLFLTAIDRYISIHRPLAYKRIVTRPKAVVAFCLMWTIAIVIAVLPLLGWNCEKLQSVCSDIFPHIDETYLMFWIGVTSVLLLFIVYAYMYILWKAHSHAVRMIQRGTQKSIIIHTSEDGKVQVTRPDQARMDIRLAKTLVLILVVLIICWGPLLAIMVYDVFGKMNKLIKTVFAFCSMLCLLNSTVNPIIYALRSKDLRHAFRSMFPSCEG

[1] = rat brain membranes, [3H]SR141716A
[2] = rat brain membranes, [3H]SR141716A, read-out: Binding rat pKi (converted)
[3] = rat brain membranes, 3 nM [3H]SR141716A, read-out: Rat Brain pKi (converted)

Chain of native CB1 receptors (P20272 whole entry, the tested form may be a part): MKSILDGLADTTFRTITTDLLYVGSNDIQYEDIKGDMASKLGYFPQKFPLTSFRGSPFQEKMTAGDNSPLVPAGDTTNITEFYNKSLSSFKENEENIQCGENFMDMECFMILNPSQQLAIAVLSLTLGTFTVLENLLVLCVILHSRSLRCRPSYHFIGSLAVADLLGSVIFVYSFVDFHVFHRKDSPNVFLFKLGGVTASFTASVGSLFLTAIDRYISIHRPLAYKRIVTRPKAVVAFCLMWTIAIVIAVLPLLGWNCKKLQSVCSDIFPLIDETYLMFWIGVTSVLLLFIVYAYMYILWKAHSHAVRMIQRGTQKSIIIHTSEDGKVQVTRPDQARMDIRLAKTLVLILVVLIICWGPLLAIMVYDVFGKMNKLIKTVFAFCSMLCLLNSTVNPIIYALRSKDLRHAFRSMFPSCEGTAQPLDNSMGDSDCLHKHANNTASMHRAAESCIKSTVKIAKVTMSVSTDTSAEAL

Binding rat Inh % (native CB1 receptors; [1]) | Ki (native CB1 receptors; [2]) | SMILES | also measured
90% | 2.51 nM | O=C(NC1CCC(F)(F)CC1)c1ccc2c(c1)N=C(c1ccc(Cl)cc1)c1ccccc1S2 | 
 | 20 nM | CC(NC(=O)c1ccc2c(c1)N=C(N1CCCCC1)c1ccccc1S2)c1ccccc1 (centres unmarked) | 
 | 25.1 nM | CCCC1=Nc2cc(C(=O)NC(C)C34C[C@H]5C[C@@H](C3)C[C@@H](C4)C5)ccc2Sc2ccccc21 (some centres unmarked) | 
 | 63.1 nM | CCC1=Nc2cc(C(=O)NCCc3ccc(OC)c(OC)c3)ccc2Sc2ccccc21 | 
 | 79.4 nM | O=C(NN1CCCCC1)c1ccc2c(c1)N=C(c1ccc(Cl)cc1)c1ccccc1O2 | 
73% | 100 nM | O=C(NNC(=O)c1ccc2c(c1)N=C(c1cccc(Br)c1)c1ccccc1S2)c1ccccc1 | 
 | 12.6 nM | O=C(NCc1cccc(Cl)c1)c1ccc2c(c1)N=C(N1CCCCC1)c1cc(F)ccc1S2 [drawing 1181] | 
116% | 12.6 nM | CC(C)CCNC(=O)c1ccc2c(c1)N=C(c1ccccc1Cl)c1ccccc1S2 [drawing 1188] | 
86% | 12.6 nM | CCCNC(=O)c1ccc2c(c1)N=C(c1cccc(Cl)c1)c1ccccc1S2 [drawing 1189] | 
 | 12.6 nM | O=C(NCc1ccc(Cl)cc1Cl)c1ccc2c(c1)N=C(c1ccccc1)c1ccccc1S2 [drawing 1204] | 
 | 12.6 nM | CCCCNC(=O)c1ccc2c(c1)N=C(c1ccc(Cl)cc1)c1ccccc1[S+]2[O-] (centres unmarked) [drawing 1205] | 
 | 12.6 nM | O=C(NCCCc1ccccc1)c1ccc2c(c1)N=C(c1ccccc1F)c1ccccc1S2 [drawing 1206] | 
 | 12.6 nM | O=C(NCc1ccc(Cl)cc1Cl)c1ccc2c(c1)N=C(c1ccc(F)cc1)c1ccccc1S2 [drawing 1211] | 
 | 15.8 nM | CC(CNC(=O)c1ccc2c(c1)N=C(c1ccccc1F)c1ccccc1S2)c1ccccc1 (centres unmarked) [drawing 1214] | 
 | 15.8 nM | O=C(NCc1ccccc1)c1ccc2c(c1)N=C(c1ccccc1)c1ccccc1S2 [drawing 1219] | 
107% | 0.631 nM | O=C(NC1CCC(F)(F)CC1)c1ccc2c(c1)N=C(c1ccc(Cl)s1)c1ccccc1S2 [drawing 1224] | 
89% | 0.631 nM | O=C(NCCCC(F)(F)F)c1ccc2c(c1)N=C(c1ccc(Cl)cc1)c1ccccc1S2 [drawing 1226] | 
83% | 15.8 nM | CCCCNC(=O)c1ccc2c(c1)N=C(c1ccc(Cl)cn1)c1cc(F)ccc1S2 [drawing 1230] | 
85% | 0.631 nM | Cc1ccc(CNC(=O)c2ccc3c(c2)N=C(c2cccc(Cl)c2)c2ccccc2S3)o1 [drawing 1231] | 
90% | 0.794 nM | Cc1csc(CNC(=O)c2ccc3c(c2)N=C(c2ccc(Cl)s2)c2ccccc2S3)c1 [drawing 1232] | 
89% | 0.794 nM | Cc1csc(CNC(=O)c2ccc3c(c2)N=C(c2cccc(F)c2)c2ccccc2S3)c1 [drawing 1234] | 
91% | 15.8 nM | COc1cccc(C2=Nc3cc(C(=O)NCCC(F)(F)F)ccc3Sc3ccccc32)n1 [drawing 1237] | 
 | 15.8 nM | CCN(CCNC(=O)c1ccc2c(c1)N=C(c1ccccc1)c1ccccc1S2)c1ccccc1 [drawing 1245] | 

The next lines start with the molecule.

SMILES | Binding rat Inh % (native CB1 receptors; [1]) | Ki (native CB1 receptors; [2]) | also measured
O=C(NC1CCC(F)(F)CC1)c1ccc2c(c1)N=C(c1ccc(Cl)cc1F)c1ccccc1S2 | 78% | 1 nM | 
CCCCNC(=O)c1ccc2c(c1)N=C(c1ccc(F)c(F)c1)c1ccccc1S2 | 102% | 2.51 nM | 
O=C(NC1CCC(F)(F)CC1)c1ccc2c(c1)N=C(c1ccsc1)c1ccccc1S2 | 92% | 3.16 nM | 
O=C(NN1CCCCC1)c1ccc2c(c1)N=C(c1cccc(Cl)c1)c1ccccc1O2 |  | 39.8 nM | 
O=C(NCc1cccc(Cl)c1)c1ccc2c(c1)N=C(C1CCCCC1)c1cc(F)ccc1S2 |  | 10 nM | 
O=C(NN1CCCCC1)c1ccc2c(c1)N=C(C1CCCCC1)c1ccccc1O2 |  |  | Ki (native CB1 receptors): 63.1 nM
Cc1ccc(N2CCN(C(=O)c3ccc4c(c3)N=C(Cl)c3ccccc3S4)CC2)c(C)c1 [Example 12] |  |  | Ki (native CB1 receptors; [3]): 251 nM
Cc1ccc(N2CCN(C(=O)c3ccc4c(c3)N=C(c3ccc(Cl)cc3)c3ccccc3S4)CC2)c(C)c1 [Example 19] |  |  | Ki (native CB1 receptors; [3]): 50.1 nM
O=C(NCc1ccc(Cl)cc1Cl)c1ccc2c(c1)N=C(c1ccccc1)c1ccccc1S2 [drawing 1167] |  |  | IC50 (CB1 (mutant)): 39.8 nM; Emax (CB1 (mutant)): 91%
CC(CNC(=O)c1ccc2c(c1)N=C(N1CCCCC1)c1cc(F)ccc1S2)c1ccccc1 (centres unmarked) [drawing 1171] |  |  | IC50 (CB1 (mutant)): 39.8 nM; Emax (CB1 (mutant)): 102%
CC(C)CNC(=O)c1ccc2c(c1)N=C(c1ccc(Cl)cn1)c1ccc(Cl)cc1S2 [drawing 1172] |  |  | Emax (CB1 (mutant)): 27%
CC(CNC(=O)c1ccc2c(c1)N=C(c1ccc(Cl)cc1)c1cc(F)ccc1S2)c1ccccc1 (centres unmarked) [drawing 1173] |  |  | IC50 (CB1 (mutant)): 39.8 nM; Emax (CB1 (mutant)): 110%
N#Cc1ccc(C2=Nc3cc(C(=O)NNCc4ccccc4)ccc3Sc3ccccc32)cc1 [drawing 1174] |  |  | Emax (CB1 (mutant)): 58%
O=C(NCCc1cccc(Cl)c1)c1ccc2c(c1)N=C(c1ccc(F)cc1)c1ccccc1S2 [drawing 1179] |  | 12.6 nM | 
O=C(NCc1cccnc1)c1ccc2c(c1)N=C(c1ccc(Br)cc1)c1ccccc1S2 [drawing 1180] | 72% | 12.6 nM | 
Cc1ccsc1C1=Nc2cc(C(=O)NN3CCCCC3)ccc2Sc2ccccc21 [drawing 1182] | 59% | 12.6 nM | 
CCCCNC(=O)c1ccc2c(c1)N=C(c1ccc(Cl)cc1)c1ccc(Cl)cc1S2 [drawing 1187] | 94% | 12.6 nM | 
O=C(Cc1ccccc1)NNC(=O)c1ccc2c(c1)N=C(c1ccc(F)cc1)c1ccccc1S2 [drawing 1190] | 65% | 12.6 nM | 
O=C(NCCc1ccc(Cl)cc1)c1ccc2c(c1)N=C(N1CCC(F)CC1)c1ccccc1S2 [drawing 1195] |  | 12.6 nM | 
CC(CNC(=O)c1ccc2c(c1)N=C(c1cccc(Cl)c1)c1cc(F)ccc1S2)c1ccccc1 (centres unmarked) [drawing 1196] |  | 12.6 nM | 
CC(CNC(=O)c1ccc2c(c1)N=C(c1ccccc1)c1ccccc1S2)c1ccccc1 (centres unmarked) [drawing 1197] |  | 12.6 nM | 
Cc1ccsc1C1=Nc2cc(C(=O)NCCC(F)(F)F)ccc2Sc2ccccc21 [drawing 1198] | 103% | 12.6 nM | 
CC(C)CNC(=O)c1ccc2c(c1)N=C(c1ccc(Cl)s1)c1ccccc1S2 [drawing 1201] |  |  | Binding rat pKi (native CB1 receptors; [1]): 8.6

SMILES | Binding rat Inh % (native CB1 receptors; [1]) | Ki (native CB1 receptors; [2]) | also measured
O=C(NCCc1cccnc1)c1ccc2c(c1)N=C(c1ccc(F)cc1)c1ccccc1S2 [drawing 1203] | 96% | 12.6 nM | 
O=C(NCc1ccc(F)cc1)c1ccc2c(c1)N=C(N1CCCCC1)c1ccccc1S2 [drawing 1212] |  | 12.6 nM | 
O=C(NCCc1ccncc1)c1ccc2c(c1)N=C(c1ccc(F)cc1)c1ccccc1S2 [drawing 1220] | 103% | 15.8 nM | 
O=C(NCc1cccnc1)c1ccc2c(c1)N=C(c1cccc(F)c1)c1ccccc1S2 [drawing 1221] | 84% | 15.8 nM | 
O=C(NCCc1cccc(Cl)c1)c1ccc2c(c1)N=C(N1CCCCC1)c1ccccc1S2 [drawing 1222] |  | 15.8 nM | 
Cc1ccc(CNC(=O)c2ccc3c(c2)N=C(c2ccc(Cl)s2)c2ccccc2S3)o1 [drawing 1223] | 106% | 0.501 nM | 
Cc1ccsc1C1=Nc2cc(C(=O)NCCCC(F)(F)F)ccc2Sc2ccccc21 [drawing 1225] | 109% | 0.631 nM | 
O=C(NCc1cccs1)c1ccc2c(c1)N=C(c1ccccc1F)c1ccccc1S2 [drawing 1227] | 94% | 15.8 nM | 
O=C(NCCc1ccc(Cl)cc1)c1ccc2c(c1)N=C(c1ccccc1F)c1ccccc1S2 [drawing 1228] |  | 15.8 nM | 
CC(C)CNC(=O)c1ccc2c(c1)N=C(c1ccc(Cl)cn1)c1ccc(F)cc1S2 [drawing 1229] | 87% | 15.8 nM | 
O=C(NCCCC(F)(F)F)c1ccc2c(c1)N=C(c1ccsc1)c1ccccc1S2 [drawing 1233] | 97% | 0.794 nM | 
CCCCNC(=O)c1ccc2c(c1)N=C(c1cccc(Cl)c1)c1cc(Cl)ccc1S2 [drawing 1235] | 89% | 15.8 nM | 
CCCNC(=O)c1ccc2c(c1)N=C(c1ccc(Cl)s1)c1ccccc1S2 [drawing 1236] | 89% | 15.8 nM | 
CCCCNC(=O)c1ccc2c(c1)N=C(c1ccc(F)cc1)c1ccccc1S2 [drawing 1238] |  | 15.8 nM | 
Cc1ccc(CNC(=O)c2ccc3c(c2)N=C(c2ccc(F)cc2)c2ccccc2S3)o1 [drawing 1239] | 108% | 0.794 nM | 
CC(C)CCNC(=O)c1ccc2c(c1)N=C(c1cccc(F)c1)c1ccccc1S2 [drawing 1240] | 99% | 0.794 nM | 
O=C(NC1CCC(F)(F)CC1)c1ccc2c(c1)N=C(c1cccc(Cl)c1)c1ccccc1S2 [drawing 1242] | 79% | 1 nM | 
CCCCNC(=O)c1cc2c(cc1C)Sc1ccccc1C(c1ccc(Cl)cc1)=N2 [drawing 1243] | 119% | 15.8 nM | 
CCCCNC(=O)c1ccc2c(c1)N=C(c1sccc1C)c1ccccc1S2 [drawing 1244] | 103% | 15.8 nM | 
CCCCNC(=O)c1ccc2c(c1)N=C(c1ccc(F)cn1)c1ccccc1S2 [drawing 1246] | 87% | 15.8 nM | 
CCCCNC(=O)c1ccc2c(c1)N=C(c1ccc(Cl)cc1)c1sccc1S2 [drawing 1247] | 97% | 1 nM | 
O=C(NCCCC(F)(F)F)c1ccc2c(c1)N=C(c1cccc(F)c1)c1ccccc1S2 [drawing 1248] | 83% | 1 nM | 
O=C(NC1CCC(F)(F)CC1)c1ccc2c(c1)N=C(c1cccc(F)c1)c1ccccc1S2 [drawing 1249] | 112% | 1 nM | 
